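Test compounds were applied to cells in 96-well plates for 48 hours at 5 doses. GI50 is the concentration that inhibits growth by half.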 Active and inactive are the calls of the source. No stated cut-off is given here; in the data, active = GI50 up to about 1.1 µM and inactive = higher.
Columns and labels:
Test in all cases: NCI anticancer screen, dose series, 48 h
TK-10 = tested on: TK-10
HCT-15 = tested on: HCT-15
NCI-H460 = tested on: NCI-H460
MCF7 = tested on: MCF7
BT-549 = tested on: BT-549
HT-29 = tested on: HT-29
NCI-H23 = tested on: NCI-H23
OVCAR-5 = tested on: OVCAR-5
CCRF-CEM = tested on: CCRF-CEM
SR = tested on: SR
A498 = tested on: A498
DU-145 = tested on: DU-145
SNB-19 = tested on: SNB-19
SN12C = tested on: SN12C
HCT-116 = tested on: HCT-116
SK-MEL-2 = tested on: SK-MEL-2
OVCAR-3 = tested on: OVCAR-3
RPMI-8226 = tested on: RPMI-8226
MDA-MB-435 = tested on: MDA-MB-435
K562 = tested on: K562
M14 = tested on: M14
NCI-H226 = tested on: NCI-H226
SF-268 = tested on: SF-268
T47D = tested on: T47D
MDA-N = tested on: MDA-N
A549 = tested on: A549
UO-31 = tested on: UO-31
786-0 = tested on: 786-0
HL-60 = tested on: HL-60
SW-620 = tested on: SW-620
MDA-MB-231 = tested on: MDA-MB-231
UACC-62 = tested on: UACC-62
SK-MEL-5 = tested on: SK-MEL-5
Malme-3M = tested on: Malme-3M
CAKI-1 = tested on: CAKI-1
U-251 = tested on: U-251
SNB-75 = tested on: SNB-75
MOLT-4 = tested on: MOLT-4
LOX IMVI = tested on: LOX IMVI
IGROV-1 = tested on: IGROV-1
OVCAR-8 = tested on: OVCAR-8
HCC 2998 = tested on: HCC 2998
NCI-H522 = tested on: NCI-H522
HOP-62 = tested on: HOP-62
ACHN = tested on: ACHN
PC-3 = tested on: PC-3
UACC-257 = tested on: UACC-257
SK-MEL-28 = tested on: SK-MEL-28
OVCAR-4 = tested on: OVCAR-4
SF-539 = tested on: SF-539
SK-OV-3 = tested on: SK-OV-3
HOP-92 = tested on: HOP-92
NCI/ADR-RES = tested on: NCI/ADR-RES
EKVX = tested on: EKVX
RXF 393 = tested on: RXF 393
COLO 205 = tested on: COLO 205
SF-295 = tested on: SF-295
KM12 = tested on: KM12

Compound: O=C(/N=N/c1ccc([N+](=O)[O-])cc1)NNc1ccc([N+](=O)[O-])cc1
- GI50 (TK-10): 20.1 µM (inactive)
- GI50 (HCT-15): 19.2 µM
- GI50 (NCI-H460): 19.6 µM (inactive)
- GI50 (MCF7): 4.58 µM (inactive)
- GI50 (BT-549): 15.5 µM (inactive)
- GI50 (HT-29): 31.3 µM (inactive)
- GI50 (NCI-H23): 15.5 µM (inactive)
- GI50 (OVCAR-5): 14.5 µM (inactive)
- GI50 (CCRF-CEM): 15.8 µM (inactive)
- GI50 (SR): 15.4 µM (inactive)
- GI50 (A498): 4.46 µM (inactive)
- GI50 (DU-145): 5.74 µM (inactive)
- GI50 (SNB-19): 27 µM (inactive)
- GI50 (SN12C): 13.3 µM (inactive)
- GI50 (HCT-116): 11.8 µM (inactive)
- GI50 (SK-MEL-2): 13.3 µM (inactive)
- GI50 (OVCAR-3): 20.5 µM (inactive)
- GI50 (RPMI-8226): 14.3 µM (inactive)
- GI50 (MDA-MB-435): 12.8 µM (inactive)
- GI50 (K562): 11.4 µM (inactive)
- GI50 (M14): 13.5 µM (inactive)
- GI50 (NCI-H226): 19.5 µM (inactive)
- GI50 (SF-268): 21.8 µM (inactive)
- GI50 (T47D): 9.14 µM (inactive)
- GI50 (MDA-N): 11.6 µM (inactive)
- GI50 (A549): 26 µM (inactive)
- GI50 (UO-31): 10.9 µM (inactive)
- GI50 (786-0): 13.7 µM (inactive)
- GI50 (HL-60): 11.9 µM (inactive)
- GI50 (SW-620): 18.7 µM (inactive)
- GI50 (MDA-MB-231): 24 µM (inactive)
- GI50 (UACC-62): 10.3 µM (inactive)
- GI50 (SK-MEL-5): 13.9 µM (inactive)
- GI50 (Malme-3M): 19 µM (inactive)
- GI50 (CAKI-1): 18.9 µM (inactive)
- GI50 (U-251): 18.9 µM (inactive)
- GI50 (SNB-75): 23.9 µM (inactive)
- GI50 (MOLT-4): 11 µM (inactive)
- GI50 (LOX IMVI): 11.2 µM (inactive)
- GI50 (IGROV-1): 12.8 µM (inactive)
- GI50 (OVCAR-8): 17.2 µM (inactive)
- GI50 (HCC 2998): 14.2 µM (inactive)
- GI50 (NCI-H522): 17.7 µM (inactive)
- GI50 (HOP-62): 13.3 µM (inactive)
- GI50 (ACHN): 13.5 µM (inactive)
- GI50 (PC-3): 9.62 µM (inactive)
- GI50 (UACC-257): 24.3 µM (inactive)
- GI50 (SK-MEL-28): 16.4 µM (inactive)
- GI50 (OVCAR-4): 18.1 µM (inactive)

Compound: CSc1ncc2c(n1)C(C#N)C1Sc3ccccc3N1C2=O (stereo not drawn)
- GI50 (TK-10): 90.4 µM (inactive)
- GI50 (HCT-15): > 100 µM
- GI50 (SF-539): 37.3 µM (inactive)
- GI50 (NCI-H460): > 100 µM (inactive)
- GI50 (BT-549): > 100 µM (inactive)
- GI50 (HT-29): > 100 µM (inactive)
- GI50 (NCI-H23): 78 µM (inactive)
- GI50 (OVCAR-5): > 100 µM (inactive)
- GI50 (A498): > 100 µM (inactive)
- GI50 (DU-145): > 100 µM (inactive)
- GI50 (SNB-19): 53.6 µM (inactive)
- GI50 (SN12C): > 100 µM (inactive)
- GI50 (HCT-116): > 100 µM (inactive)
- GI50 (SK-OV-3): > 100 µM (inactive)
- GI50 (OVCAR-3): > 100 µM (inactive)
- GI50 (RPMI-8226): > 100 µM (inactive)
- GI50 (MDA-MB-435): > 100 µM (inactive)
- GI50 (M14): > 100 µM (inactive)
- GI50 (NCI-H226): > 100 µM (inactive)
- GI50 (SF-268): 44.9 µM (inactive)
- GI50 (T47D): > 100 µM (inactive)
- GI50 (MDA-N): > 100 µM (inactive)
- GI50 (A549): > 100 µM (inactive)
- GI50 (UO-31): > 100 µM (inactive)
- GI50 (786-0): 76.9 µM (inactive)
- GI50 (HOP-92): 80 µM (inactive)
- GI50 (NCI/ADR-RES): > 100 µM (inactive)
- GI50 (SW-620): > 100 µM (inactive)
- GI50 (MDA-MB-231): > 100 µM (inactive)
- GI50 (SK-MEL-5): > 100 µM (inactive)
- GI50 (Malme-3M): > 100 µM (inactive)
- GI50 (EKVX): > 100 µM (inactive)
- GI50 (CAKI-1): > 100 µM (inactive)
- GI50 (U-251): 34.5 µM (inactive)
- GI50 (SNB-75): 22.9 µM (inactive)
- GI50 (MOLT-4): > 100 µM (inactive)
- GI50 (LOX IMVI): > 100 µM (inactive)
- GI50 (IGROV-1): > 100 µM (inactive)
- GI50 (OVCAR-8): > 100 µM (inactive)
- GI50 (NCI-H522): 62.2 µM (inactive)
- GI50 (RXF 393): 65 µM (inactive)
- GI50 (COLO 205): > 100 µM (inactive)
- GI50 (HOP-62): 37.5 µM (inactive)
- GI50 (ACHN): 59.4 µM (inactive)
- GI50 (SF-295): 36 µM (inactive)
- GI50 (UACC-257): > 100 µM (inactive)
- GI50 (SK-MEL-28): > 100 µM (inactive)
- GI50 (OVCAR-4): > 100 µM (inactive)
- GI50 (KM12): > 100 µM (inactive)

From ChEMBL document CHEMBL1201862, “PubChem BioAssay data set” (2004)
